Biological target: Tyrosine-protein kinase ABL2 (Homo sapiens) (UniProt P42684)
Test: inhibitors of human ABL2 (Arg) tyrosine kinase activity – biochemical, Z'-LYTE, FRET readout, direct format, dose response (AID 1671257)
Conditions: Z'-LYTE FRET kinase assay, recombinant ABL2

Chain of Tyrosine-protein kinase ABL2 (Homo sapiens) (P42684 whole entry, looked up): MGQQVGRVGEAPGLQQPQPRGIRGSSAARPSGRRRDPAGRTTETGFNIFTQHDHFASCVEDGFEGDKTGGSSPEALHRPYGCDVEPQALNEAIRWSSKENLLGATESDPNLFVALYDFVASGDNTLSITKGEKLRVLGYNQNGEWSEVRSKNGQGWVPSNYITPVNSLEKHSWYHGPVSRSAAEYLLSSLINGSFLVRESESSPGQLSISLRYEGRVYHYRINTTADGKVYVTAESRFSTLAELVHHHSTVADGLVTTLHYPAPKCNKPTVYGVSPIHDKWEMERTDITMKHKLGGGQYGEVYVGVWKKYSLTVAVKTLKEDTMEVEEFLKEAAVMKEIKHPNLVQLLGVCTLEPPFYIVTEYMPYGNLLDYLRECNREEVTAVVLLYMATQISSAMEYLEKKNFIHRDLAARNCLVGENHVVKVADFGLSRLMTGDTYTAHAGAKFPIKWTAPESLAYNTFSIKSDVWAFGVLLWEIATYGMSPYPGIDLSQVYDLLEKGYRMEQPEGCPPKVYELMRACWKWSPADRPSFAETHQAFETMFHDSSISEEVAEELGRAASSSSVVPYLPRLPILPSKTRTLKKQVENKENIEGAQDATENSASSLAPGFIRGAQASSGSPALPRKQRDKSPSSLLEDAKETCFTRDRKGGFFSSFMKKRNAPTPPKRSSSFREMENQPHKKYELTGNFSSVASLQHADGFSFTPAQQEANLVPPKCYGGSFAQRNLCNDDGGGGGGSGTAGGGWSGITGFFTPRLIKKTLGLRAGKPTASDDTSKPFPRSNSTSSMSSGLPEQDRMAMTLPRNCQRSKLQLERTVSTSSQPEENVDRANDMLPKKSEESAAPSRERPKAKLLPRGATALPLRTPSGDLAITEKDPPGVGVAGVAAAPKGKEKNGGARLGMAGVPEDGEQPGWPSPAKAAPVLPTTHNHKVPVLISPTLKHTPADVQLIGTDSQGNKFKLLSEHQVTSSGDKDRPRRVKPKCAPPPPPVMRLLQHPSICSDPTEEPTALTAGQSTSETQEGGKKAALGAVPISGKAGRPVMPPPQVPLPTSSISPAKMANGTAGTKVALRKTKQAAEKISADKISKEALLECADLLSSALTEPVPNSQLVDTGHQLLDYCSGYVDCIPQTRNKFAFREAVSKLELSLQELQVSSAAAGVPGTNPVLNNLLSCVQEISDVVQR

Which IC50 does the source give for `COc1cc2ncnc(Nc3cccc(Cl)c3)c2cc1OC` here?
Its IC50 is 1050 nM.

From PubChem BioAssay AID1671257
